{"source": "patent US7550451B2", "about": "“Progesterone receptor modulators with increased antigonadotropic activity for female birth control and hormone replacement therapy” (Bayer Schering Pharma AG, priority 2002, dated 2009)", "key": {"[1]": {"target": "T1, Glucocorticoid receptor (Rattus norvegicus, UniProt P06536)", "T1 construct": "Thymus cytosol of the adrenalectomized rat; from tissue; host or cells: thymus cytosol of adrenalectomized rat", "T1 sequence (P06536 1-795)": "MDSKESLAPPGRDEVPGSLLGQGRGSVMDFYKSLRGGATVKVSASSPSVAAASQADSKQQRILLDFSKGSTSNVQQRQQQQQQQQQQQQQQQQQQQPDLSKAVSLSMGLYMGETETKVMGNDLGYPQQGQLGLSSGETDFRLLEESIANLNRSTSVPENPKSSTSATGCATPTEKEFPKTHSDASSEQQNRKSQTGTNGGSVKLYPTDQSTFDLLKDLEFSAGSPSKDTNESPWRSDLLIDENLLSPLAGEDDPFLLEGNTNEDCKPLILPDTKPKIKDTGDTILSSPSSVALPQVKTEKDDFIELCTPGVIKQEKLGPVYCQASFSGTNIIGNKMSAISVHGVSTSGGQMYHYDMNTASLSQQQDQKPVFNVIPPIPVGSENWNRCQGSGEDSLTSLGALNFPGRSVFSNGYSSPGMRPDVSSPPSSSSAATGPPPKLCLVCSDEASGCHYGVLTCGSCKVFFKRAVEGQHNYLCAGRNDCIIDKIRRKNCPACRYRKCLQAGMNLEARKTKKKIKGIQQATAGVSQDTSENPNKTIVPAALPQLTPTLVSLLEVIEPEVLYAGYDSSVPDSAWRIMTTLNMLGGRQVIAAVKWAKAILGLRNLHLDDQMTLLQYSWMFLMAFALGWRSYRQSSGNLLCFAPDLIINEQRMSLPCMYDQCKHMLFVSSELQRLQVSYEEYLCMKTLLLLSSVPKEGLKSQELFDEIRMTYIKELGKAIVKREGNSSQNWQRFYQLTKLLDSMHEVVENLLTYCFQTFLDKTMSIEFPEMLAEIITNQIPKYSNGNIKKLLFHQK", "experiment": "Receptor binding affinity, glucocorticoid receptor (competitive binding, 3H-dexamethasone)", "conditions": "Dexamethasone = 100%; thymus cytosol of adrenalectomized rat", "description": "(§1) The receptor binding affinity was determined by competitive binding of a specifically binding ^3H-labeled hormone (tracer) and the compound to be tested on receptors in the cytosol from animal target organs. In this case, receptor saturation and reaction equilibrium were sought.\n(§2) The tracers and increasing concentrations of the compound to be tested (competitor) were co-incubated with the receptor-containing cytosol fraction at 0-4° C. over 18 hours. After separation of the unbonded tracer with carbon-dextran suspension, the receptor-bonded tracer portion was measured for each concentration, and the IC50 was determined from the concentration sequence. As a quotient of the IC50 values of the reference substance and the compound to be tested (×100%), the relative molar binding affinity (RBA) was calculated (RBA of the reference substance=100%).\nThymus cytosol of the adrenalectomized rat, thymi stored at −30° C.; buffer: TED. Tracer: ^3H-Dexamethasone, 20 nmol; reference substance: dexamethasone."}, "[2]": {"tested_on": "adult female rats", "experiment": "Nidation-inhibiting test (antifertile effects in the perinidation phase)", "assay_type": "in vivo", "conditions": "day 5-7 of pregnancy, rat", "description": "The determination of the progesterone-antagonistic activities was carried out on adult female rats in the nidation-inhibiting test. The principle of the test is described as follows: progesterone preserves pregnancy in all stages. An early-abortive action can accordingly be expected from competitive progesterone antagonists. Female rats (Schoe strain: WIST Tierzucht GmbH Schönwalde) with a weight of 180-200 g were subjected daily to a cycle control and paired up in proestrus. The beginning of pregnancy was determined by detecting sperm in the vaginal smear on the same day (=day 1 of pregnancy=d1 p.c.). From the 5th-7th day of pregnancy, the test substances were injected subcutaneously daily. On the 9th day, vaginal smears were taken, then the animals were autopsied and the uteri were prepared. The degeneration of implants and pathological, hemorrhagic and otherwise abnormal nidation sites were counted as abortions and are shown in Table 2."}, "[3]": {"target": "T2, Progesterone receptor (Oryctolagus cuniculus, UniProt P06186)", "T2 construct": "Uterus cytosol of the estradiol-primed rabbit; from tissue; host or cells: uterus cytosol of estradiol-primed rabbit", "T2 sequence (P06186 1-930)": "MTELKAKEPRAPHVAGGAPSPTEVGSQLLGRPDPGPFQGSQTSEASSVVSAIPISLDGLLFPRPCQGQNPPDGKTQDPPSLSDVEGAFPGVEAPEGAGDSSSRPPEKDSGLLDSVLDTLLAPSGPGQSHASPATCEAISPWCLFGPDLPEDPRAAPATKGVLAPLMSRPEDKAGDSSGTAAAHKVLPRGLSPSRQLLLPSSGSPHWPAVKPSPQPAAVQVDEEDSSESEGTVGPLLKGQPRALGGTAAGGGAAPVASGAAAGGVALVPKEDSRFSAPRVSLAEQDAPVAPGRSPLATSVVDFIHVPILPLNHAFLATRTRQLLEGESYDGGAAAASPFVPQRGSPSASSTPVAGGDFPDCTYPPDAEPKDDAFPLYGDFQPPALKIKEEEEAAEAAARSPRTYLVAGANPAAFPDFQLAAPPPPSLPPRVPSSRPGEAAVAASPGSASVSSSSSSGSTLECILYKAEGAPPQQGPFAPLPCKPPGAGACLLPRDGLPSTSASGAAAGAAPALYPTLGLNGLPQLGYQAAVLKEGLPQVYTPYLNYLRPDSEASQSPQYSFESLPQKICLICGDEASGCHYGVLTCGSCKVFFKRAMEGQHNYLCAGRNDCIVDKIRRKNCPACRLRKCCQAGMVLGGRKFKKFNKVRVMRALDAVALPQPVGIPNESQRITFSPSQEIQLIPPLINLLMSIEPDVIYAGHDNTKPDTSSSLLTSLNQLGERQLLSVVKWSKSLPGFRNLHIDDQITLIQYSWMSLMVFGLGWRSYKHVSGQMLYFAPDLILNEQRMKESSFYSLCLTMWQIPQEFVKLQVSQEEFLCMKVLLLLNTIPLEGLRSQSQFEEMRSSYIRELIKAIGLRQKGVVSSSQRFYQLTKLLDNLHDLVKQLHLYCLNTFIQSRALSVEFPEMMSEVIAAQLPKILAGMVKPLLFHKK", "experiment": "Receptor binding affinity, progesterone receptor (competitive binding, 3H-ORG 2058)", "conditions": "Progesterone = 100%; uterus cytosol of estradiol-primed rabbit", "description": "as §1, §2\nUterus cytosol of the estradiol-primed rabbit; homogenized in TED buffer (20 mmol of Tris/HCl, pH 7.4; 1 mmol of ethylenediamine tetraacetate, 2 mmol of dithiothreitol) with 250 mmol of saccharose; stored at −30° C. Tracer: ^3H-ORG 2058, 5 nmol; reference substance: progesterone."}}, "data": [{"smiles": "C[C@]12C[C@H](c3ccc(/C=N/O)cc3)C3=C4CCC(=O)C=C4CC[C@H]3[C@@H]1CC[C@@H]2O", "note": "[Example 1, 4-(17β-Hydroxy-3-oxoestra-4,9-dien-11β-yl)benzaldehyde-1(E)-oxime]", "values": [{"measurement": "GR relative molar binding affinity (RBA)", "setting": "[1]", "result": 3, "unit": "%"}, {"measurement": "Rate of Animals with Complete Inhibition of Nidation", "setting": "[2]; 1.0 mg/animal/day s.c.", "result": "0/5"}, {"measurement": "Rate of Animals with Complete Inhibition of Nidation", "setting": "[2]; 3.0 mg/animal/day s.c.", "result": "0/5"}, {"measurement": "Rate of Animals with Complete Inhibition of Nidation", "setting": "[2]; 10.0 mg/animal/day s.c.", "result": "5/5"}, {"measurement": "PR relative molar binding affinity (RBA)", "setting": "[3]", "result": 26, "unit": "%"}]}, {"smiles": "CC1(O)CCC2C3CCC4=CC(=O)CCC4=C3C(c3ccc(C=NO)cc3)CC21C", "note": "(stereo not drawn) [Example 2, 4-(17β-Hydroxy-17α-methyl-3-oxoestra-4,9-dien-11β-yl)benzaldehyde-1(E)-oxime]", "values": [{"measurement": "GR relative molar binding affinity (RBA)", "setting": "[1]", "result": 12, "unit": "%"}, {"measurement": "Rate of Animals with Complete Inhibition of Nidation", "setting": "[2]; 0.03 mg/animal/day s.c.", "result": "0/4"}, {"measurement": "Rate of Animals with Complete Inhibition of Nidation", "setting": "[2]; 0.1 mg/animal/day s.c.", "result": "0/5"}, {"measurement": "Rate of Animals with Complete Inhibition of Nidation", "setting": "[2]; 0.3 mg/animal/day s.c.", "result": "2/5"}, {"measurement": "Rate of Animals with Complete Inhibition of Nidation", "setting": "[2]; 1.0 mg/animal/day s.c.", "result": "5/5"}, {"measurement": "PR relative molar binding affinity (RBA)", "setting": "[3]", "result": 95, "unit": "%"}]}]}
